Measured values: patent publication US9487483B2, “Complement pathway modulators and uses thereof” (priority 2012, dated 2016)

These compounds were tested against Recombinant human factor D (Homo sapiens (Human), UniProt P00746) (assay: biochemical). Conditions: Factor D inhibition data using Method 1; substrate Z-Lys-thiobenzyl, fluorescence readout; read-out: IC50.
Format: biochemical
Description: Human Complement Factor D Assay: Method 1
Recombinant human factor D (expressed in E. coli and purified using standard methods) at 10 nM concentration is incubated with test compound at various concentrations for 1 hour at room temperature in 0.1 M Hepes buffer, pH 7.5, containing 1 mM MgCl2, 1 M NaCl and 0.05% CHAPS. […] IC50 values are calculated from percentage of inhibition of complement factor D-activity as a function of test compound concentration.

Chain of Recombinant human factor D (P00746 26-253): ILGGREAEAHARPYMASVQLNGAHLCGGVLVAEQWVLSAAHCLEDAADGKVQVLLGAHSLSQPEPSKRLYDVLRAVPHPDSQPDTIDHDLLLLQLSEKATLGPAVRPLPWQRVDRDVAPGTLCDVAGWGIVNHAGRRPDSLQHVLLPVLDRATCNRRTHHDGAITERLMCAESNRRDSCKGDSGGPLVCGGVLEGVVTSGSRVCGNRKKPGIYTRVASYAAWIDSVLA

Point of comparison: CC(=O)c1nn(CC(=O)N2[C@@H]3C[C@@H]3C[C@H]2C(=O)NC2CC(F)(F)C2)c2cnccc12 [Example 8, (1R,3S,5R)-2-[2-(3-Acetyl-pyrazolo[3,4-c]pyridin-1-yl)-acetyl]-2-aza-bicyclo[3.1.0]hexane-3-carboxylic acid (3,3-difluoro-cyclobutyl)-amide], IC50 2.39 µM. Against it:
- CC(=O)c1nn(CC(=O)N2[C@@H]3C[C@@H]3C[C@H]2C(=O)NC2CC(C)(C)C2)c2cnccc12 [Example 1, (1R,3S,5R)-2-[2-(3-Acetyl-pyrazolo[3,4-c]pyridin-1-yl)-acetyl]-2-aza-bicyclo[3.1.0]hexane-3-carboxylic acid (3,3-dimethyl-cyclobutyl)-amide] — 12-fold lower, 0.204 µM
- CC(=O)c1nn(CC(=O)N2[C@@H]3C[C@@H]3C[C@H]2C(=O)NC2CC2(C)C)c2ncccc12 (stereo partly drawn) [Example 2, (1R,3S,5R)-2-[2-(3-Acetyl-pyrazolo[3,4-b]pyridin-1-yl)-acetyl]-2-aza-bicyclo[3.1.0]hexane-3-carboxylic acid (2,2-dimethyl-cyclopropyl)-amide] — 2.9-fold higher, 6.9 µM
- CC(=O)c1nn(CC(=O)N2[C@@H]3C[C@@H]3C[C@H]2C(=O)NC2CC2(F)F)c2ncccc12 (stereo partly drawn) [Example 3, (1R,3S,5R)-2-[2-(3-Acetyl-pyrazolo[3,4-b]pyridin-1-yl)-acetyl]-2-aza-bicyclo[3.1.0]hexane-3-carboxylic acid (2,2-difluoro-cyclopropyl)-amide] — 2-fold higher, 4.79 µM
- CC(=O)c1nn(CC(=O)N2[C@@H]3C[C@@H]3C[C@H]2C(=O)N[C@@H]2C[C@@H]2F)c2ncccc12 [Example 4, (1R,3S,5R)-2-[2-(3-Acetyl-pyrazolo[3,4-b]pyridin-1-yl)-acetyl]-2-aza-bicyclo[3.1.0]hexane-3-carboxylic acid ((1R,2S)-2-fluoro-cyclopropyl)-amide] — 2.1-fold higher, 5.13 µM
- CC(=O)c1nn(CC(=O)N2[C@@H]3C[C@@H]3C[C@H]2C(=O)NC2CC(C)(C)CC(C)(C)C2)c2ncccc12 [Example 6, (1R,3S,5R)-2-[2-(3-Acetyl-pyrazolo[3,4-b]pyridin-1-yl)-acetyl]-2-aza-bicyclo[3.1.0]hexane-3-carboxylic acid (3,3,5,5-tetramethyl-cyclohexyl)-amide] — 43-fold lower, 0.056 µM
- CC(=O)c1nn(CC(=O)N2[C@@H]3C[C@@H]3C[C@H]2C(=O)NC2CCOC(C)(C)C2)c2cnccc12 (stereo partly drawn) [Example 7, (1R,3S,5R)-2-[2-(3-Acetyl-pyrazolo[3,4-c]pyridin-1-yl)-acetyl]-2-aza-bicyclo[3.1.0]hexane-3-carboxylic acid (2,2-dimethyl-tetrahydro-pyran-4-yl)-amide] — within 1.5-fold, 1.68 µM
- CC(=O)c1nn(CC(=O)N2[C@@H]3C[C@@H]3C[C@H]2C(=O)NC2CCC(F)(F)CC2)c2cnccc12 [Example 11, (1R,3S,5R)-2-[2-(3-Acetyl-pyrazolo[3,4-c]pyridin-1-yl)-acetyl]-2-aza-bicyclo[3.1.0]hexane-3-carboxylic acid (4,4-difluoro-cyclohexyl)-amide] — within 1.5-fold, 3.02 µM
- COC(=O)[C@@H]1CC[C@@H](NC(=O)[C@@H]2C[C@H]3C[C@H]3N2C(=O)Cn2nc(C(C)=O)c3cccnc32)C1 [Example 13, (1R,3R)-3-({(1R,3S,5R)-2-[2-(3-Acetyl-pyrazolo[3,4-b]pyridin-1-yl)-acetyl]-2-aza-bicyclo[3.1.0]hexane-3-carbonyl}-amino)-cyclopentane carboxylic acid methyl ester] — 2.5-fold higher, 5.97 µM
- COC(=O)[C@@H]1CCC[C@H](NC(=O)[C@@H]2C[C@H]3C[C@H]3N2C(=O)Cn2nc(C(C)=O)c3cccnc32)C1 [Example 14, (1R,3S)-3-({(1R,3S,5R)-2-[2-(3-Acetyl-pyrazolo[3,4-b]pyridin-1-yl)-acetyl]-2-aza-bicyclo[3.1.0]hexane-3-carbonyl}-amino)-cyclohexanecarboxylic acid methyl ester] — within 1.5-fold, 2.43 µM
- NC(=O)n1cc(NC(=O)N2[C@@H]3C[C@@H]3C[C@H]2C(=O)NC2CCCCC2)c2ccccc21 [Example 15, (1R,3S,5R)-2-Aza-bicyclo[3.1.0]hexane-2,3-dicarboxylic acid 2-[(1-carbamoyl-1H-indol-3-yl)-amide]3-cyclohexylamide] — within 1.5-fold, 1.76 µM
- NC(=O)n1cc(NC(=O)N2[C@@H]3C[C@@H]3C[C@H]2C(=O)N[C@@H]2C=CCCC2)c2ccccc21 [Example 16, (1R,3S,5R)-2-Aza-bicyclo[3.1.0]hexane-2,3-dicarboxylic acid 2-[(1-carbamoyl-1H-indol-3-yl)-amide] 3-(S)-cyclohex-2-enylamide] — within 1.5-fold, 3.15 µM
- CO[C@H]1CCC[C@@H](NC(=O)[C@@H]2C[C@H]3C[C@H]3N2C(=O)Nc2cn(C(N)=O)c3ccccc23)C1 [Example 21, (1R,3S,5R)-2-Aza-bicyclo[3.1.0]hexane-2,3-dicarboxylic acid 2-[(1-carbamoyl-1H-indol-3-yl)-amide] 3-[((1R,3S)-3-methoxy-cyclohexyl)-amide]] — 4.9-fold lower, 0.486 µM
- CC1(C)CCC[C@@H](NC(=O)[C@@H]2C[C@H]3C[C@H]3N2C(=O)Nc2cn(C(N)=O)c3ccccc23)C1 [Example 22, (1R,3S,5R)-2-Aza-bicyclo[3.1.0]hexane-2,3-dicarboxylic acid 2-[(1-carbamoyl-1H-indol-3-yl)-amide] 3-[((R)-3,3-dimethyl-cyclohexyl)-amide]] — 160-fold lower, 0.015 µM
- CC[C@H]1CCC[C@@H](NC(=O)[C@@H]2C[C@H]3C[C@H]3N2C(=O)Nc2cn(C(N)=O)c3ccccc23)C1 [Example 23, (1R,3S,5R)-2-Aza-bicyclo [3.1.0]hexane-2,3-dicarboxylic acid 2-[(1-carbamoyl-1H-indol-3-yl)-amide] 3-[((1R,3S)-3-ethyl-cyclohexyl)-amide]] — 150-fold lower, 0.016 µM
- CC[C@@H]1CCC[C@H](NC(=O)[C@@H]2C[C@H]3C[C@H]3N2C(=O)Nc2cn(C(N)=O)c3ccccc23)C1 [Example 24, (1R,3S,5R)-2-Aza-bicyclo [3.1.0]hexane-2,3-dicarboxylic acid 2-[(1-carbamoyl-1H-indol-3-yl)-amide] 3-[((1S,3R)-3-ethyl-cyclohexyl)-amide]] — 6-fold lower, 0.401 µM

Same assay, conditions: IC50, Factor D inhibition data using Method 1; substrate Z-Lys-thiobenzyl, fluorescence readout

Point of comparison: NC(=O)c1nn(CC(=O)N2[C@@H]3C[C@@H]3C[C@H]2C(=O)NC2CCCC3(CC3)C2)c2ccccc12 (single isomer, unassigned) [Example 57], IC50 1.93 µM. Against it:
- COC1(C(F)(F)F)CCCC(NC(=O)[C@@H]2C[C@H]3C[C@H]3N2C(=O)Cn2nc(C(N)=O)c3ccccc32)C1 (single isomer, unassigned) [Example 39] — 23-fold lower, 0.085 µM
- COC1(C(F)(F)F)CCCC(NC(=O)[C@@H]2C[C@H]3C[C@H]3N2C(=O)Cn2nc(C(N)=O)c3ccccc32)C1 (single isomer, unassigned) [Example 40] — 2.3-fold higher, 4.47 µM
- NC(=O)c1nn(CC(=O)N2[C@@H]3C[C@@H]3C[C@H]2C(=O)NC2CCCC3(CC3)C2)c2ccccc12 (single isomer, unassigned) [Example 58] — 47-fold lower, 0.041 µM
- CC1(C)CCC(NC(=O)[C@@H]2C[C@H]3C[C@H]3N2C(=O)Cn2nc(C(N)=O)c3ccncc32)C1 (single isomer, unassigned) [Example 67] — 6.1-fold lower, 0.318 µM
- CC1(C)CCC(NC(=O)[C@@H]2C[C@H]3C[C@H]3N2C(=O)Cn2nc(C(N)=O)c3ccncc32)C1 (single isomer, unassigned) [Example 68] — within 1.5-fold, 1.92 µM
- NC(=O)c1nn(CC(=O)N2C[C@H](F)C[C@H]2C(=O)NC2CCCC3(CC3)C2)c2ccccc12 (single isomer, unassigned) [Example 92] — within 1.5-fold, 2 µM
- NC(=O)c1nn(CC(=O)N2C[C@H](F)C[C@H]2C(=O)NC2CCCC3(CC3)C2)c2ccccc12 (single isomer, unassigned) [Example 93] — 21-fold lower, 0.092 µM
- CC(=O)c1nn(CC(=O)N2[C@H](C(=O)NC3CCCC4(CC4)C3)C[C@@]3(CO)C[C@@H]23)c2cnccc12 (single isomer, unassigned) [Example 113] — 21-fold lower, 0.09 µM
- CC(=O)c1nn(CC(=O)N2[C@H](C(=O)NC3CCCC4(CC4)C3)C[C@@]3(CO)C[C@@H]23)c2cnccc12 (single isomer, unassigned) [Example 114] — 1.5-fold lower, 1.28 µM

Same assay, conditions: read-out: IC50

Point of comparison: CC(=O)c1nn(CC(=O)N2[C@@H]3C[C@@H]3C[C@H]2C(=O)NC2CC(C)CC(C)(C)C2)c2ncccc12 (stereo partly drawn) [Example 5, (1R,3S,5R)-2-[2-(3-Acetyl-pyrazolo[3,4-b]pyridin-1-yl)-acetyl]-2-aza-bicyclo[3.1.0]hexane-3-carboxylic acid (3,3,5-trimethyl-cyclohexyl)-amide], IC50 0.022 µM. Against it:
- COC1(C)CCCC(NC(=O)[C@@H]2C[C@H]3C[C@H]3N2C(=O)Cn2nc(C(N)=O)c3ccccc32)C1 (mixture of isomers) [Example 126, 1-(2-((1R,3S,5R)-3-(((1R,3S) and (1S,3R)-3-methoxy-3-methylcyclohexyl)carbamoyl)-2-azabicyclo[3.1.0]hexan-2-yl)-2-oxoethyl)-1H-indazole-3-carboxamide] — 9.1-fold higher, 0.2 µM
- CC(=O)c1nn(CC(=O)N2[C@@H]3C[C@@H]3C[C@H]2C(=O)NC2CCCC(F)(F)C2)c2cnccc12 (stereo partly drawn) [Example 9, (1R,3S,5R)-2-[2-(3-Acetyl-pyrazolo[3,4-c]pyridin-1-yl)-acetyl]-2-aza-bicyclo[3.1.0]hexane-3-carboxylic acid (3,3-difluoro-cyclohexyl)-amide] — 67-fold higher, 1.48 µM
- CC(=O)c1nn(CC(=O)N2[C@@H]3C[C@@H]3C[C@H]2C(=O)NC2(CO)CCCCC2)c2cnccc12 [Example 10, (1R,3S,5R)-2-[2-(3-Acetyl-pyrazolo[3,4-c]pyridin-1-yl)-acetyl]-2-aza-bicyclo[3.1.0]hexane-3-carboxylic acid (1-hydroxymethyl-cyclohexyl)-amide] — 83-fold higher, 1.82 µM
- CC(=O)c1nn(CC(=O)N2[C@@H]3C[C@@H]3C[C@H]2C(=O)N[C@@H]2CC[C@@H](C(N)=O)C2)c2ncccc12 [Example 12, (1R,3S,5R)-2-[2-(3-Acetyl-pyrazolo[3,4-b]pyridin-1-yl)-acetyl]-2-aza-bicyclo[3.1.0]hexane-3-carboxylic acid ((1R,3R)-3-carbamoyl-cyclopentyl)-amide] — 580-fold higher, 12.7 µM
- C[C@H]1CCC[C@@H](NC(=O)[C@@H]2C[C@H]3C[C@H]3N2C(=O)Nc2cn(C(N)=O)c3ccccc23)C1 [Example 25, (1R,3S,5R)-2-Aza-bicyclo[3.1.0] hexane-2,3-dicarboxylic acid 2-[(1-carbamoyl-1H-indol-3-yl)-amide] 3-[((1R,3S)-3-methyl-cyclohexyl)-amide]] — within 1.5-fold, 0.028 µM
